From the METLIN SMRT retention time set (Domingo-Almenara et al. 2019)

Assay: gradient 5% acetonitrile 3 min, to 50% in 2 min, to 85% in 15 min, held 3 min, 100 µL/min
Conditions: column: Zorbax Extend-C18 2.1 x 50 mm; eluents: water / acetonitrile, 0.1% formic acid
How it was run: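 A Zorbax Extend-C18 column (2.1 × 50 mm, 1.8 μm) run at 100 μL/min with water and acetonitrile, both containing 0.1% formic acid, separated mixtures of ~100 pure standards. The HPLC was coupled to a quadrupole time-of-flight mass spectrometer operated in positive and negative ionization mode, with dead and dwell volumes of 40 μL and 900 μL. Each retention time was taken from a computationally picked adduct peak that was then manually inspected.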

| RP-LC retention time [s] | SMILES |
| --- | --- |
| 844 | CCOC(=O)c1c(NCCc2cccs2)c2cccc(Cl)c2[nH]c1=O |
| 658 | COc1ccc(CNC(=O)c2cn3ccccc3n2)c(OC)c1 |
| 669 | CCCN(Cc1ccc(Cl)cc1)Cc1cc(=O)n2ccc(C)cc2n1 |
| 615 | O=C(c1ccc(F)c(F)c1)N1CCN(c2cc(-c3cccnc3)[nH]n2)CC1 |
| 684 | COc1ccc(C(=O)Nc2cnn(C)c(=O)c2N2CCOCC2)cc1OC |
| 876 | O=C(CN1C(=O)CC(c2cccs2)=Nc2ccccc21)NCc1ccccc1 |
| 841 | COc1ccc(-c2cn3c(CC(=O)N(Cc4ccco4)C4CCCC4)csc3n2)cc1OC |
| 902 | CCOc1ccc(N2CC(c3nc(-c4ccc(OC)cc4OC)no3)CC2=O)cc1 (stereo not drawn) |
| 1040 | O=C(Cn1cccc(-c2nc(-c3ccccc3)no2)c1=O)Nc1cc(C(F)(F)F)ccc1Cl |
| 1280 | CCCN1C(=O)COc2ccc(-c3noc(-c4ccccc4Br)n3)cc21 |
| 1310 | Cc1sc(-c2nnc(C(=O)N3CCCC3)o2)cc1S(=O)(=O)NCc1cccnc1 |
| 640 | O=C(C1CCN(c2cc(N3CCOCC3)ncn2)CC1)N1CCN(c2ccccc2)CC1 |
| 566 | Cn1cc(C(=O)N2CCN(c3ccccn3)CC2)c2cccnc21 |
| 873 | CCc1onc(C)c1C1CCCN1C(=O)Nc1ccc(Cl)cc1 (stereo not drawn) |
| 678 | COc1ccccc1-c1nnc(NC(=O)c2c[nH]c3ccccc23)o1 |
| 876 | CCCC(=O)c1cn(CC(=O)NCc2ccc3c(c2)OCCCO3)c2ccccc12 |
| 955 | O=C(Cc1ccc(Cl)cc1)Nc1nnc(SCc2nnc(-c3ccccc3)o2)s1 |
| 557 | CCC(=O)NCc1nc2c(n1C)CN(S(=O)(=O)c1cc(F)ccc1F)CC2 |
| 614 | COc1ccc(N2CCN(c3nc(C(=O)N4CCN(C)CC4)cs3)CC2)cc1 |
| 597 | O=C(C1CCCN(c2ccc(-c3ccccc3)nn2)C1)N1CCN(C2CCCCC2)CC1 (stereo not drawn) |
| 922 | Cc1ccc2nc(NC(=O)CSc3nc4c(c(=O)n3-c3ccccc3)SCC4)sc2c1 |
| 813 | COc1ccc(NC(=O)NCC23CCC=C2N(CC2CC2)C(=O)CC3)cc1 (stereo not drawn) |

| RP-LC retention time [s] | SMILES |
| --- | --- |
| 900 | COc1ccc(C2SCCN2S(=O)(=O)c2ccc(C)c([N+](=O)[O-])c2)cc1OC (stereo not drawn) |
| 797 | COCCC(=O)N1CCC(Oc2nccnc2N2CCc3ccccc32)C1 (stereo not drawn) |
| 1110 | O=C(Nc1cccc(F)c1)C1CCN(S(=O)(=O)c2cc(-c3noc(C4CCC4)n3)cs2)CC1 |
| 875 | CCc1cccc(CC)c1NC(=O)c1cccc(OC)c1 |
| 560 | COCCN1CCC(N2CCCN(C(=O)C3COc4ccccc4O3)CC2)C1=O (stereo not drawn) |
| 834 | O=C(Cc1ccc(Cl)cc1)Nc1ccc(N2CCN(C3CCCC3)C2=O)nc1 |
| 925 | Cn1nc(-c2nc(C3CC3)no2)c2c1CCN(S(=O)(=O)c1ccc(F)cc1)C2 |
| 737 | Cc1ccc(-c2cn3cccc(C)c3n2)cc1NS(=O)(=O)c1ccc(Br)cc1 |
| 765 | Cn1c(=O)c2cc(C(=O)N3CCN(c4ccccc4F)CC3)sc2n(C)c1=O |
| 947 | Cc1ccccc1C(=O)Nc1cc(-c2cccs2)no1 |
| 669 | Cc1cccc(N2CCN(CC(O)c3ccc4c(c3)OCO4)CC2)c1 (stereo not drawn) |
| 745 | Cc1ccc(C)c(NC(=O)N2CCCN(c3ccc(=O)n(-c4ccccc4)n3)CC2)c1 |
| 622 | CCS(=O)(=O)N1CCC(Cc2ccc(CN3CCOCC3)cc2)CC1 |
| 919 | Cc1nn2c(CNS(=O)(=O)Cc3ccccc3Cl)c(-c3ccccc3)nc2s1 |
| 820 | C=CCNC(=O)c1cn(-c2cc(-c3nc(C(C)C)no3)ccn2)cn1 |
| 690 | CC(C)CCNC(=O)C1CCCN(c2ccnc(-c3ccc(F)cc3)n2)C1 (stereo not drawn) |
| 1050 | CCOc1ccc(S(=O)(=O)N2CCCC(C(=O)Nc3cccc(C)c3)C2)cc1 (stereo not drawn) |
| 625 | CCn1c(CCNC(=O)c2ccc(N(C)C)cc2)nc2cccnc21 |
| 824 | COc1ccc(-c2ccc(=O)n(CCCNC(=O)c3ccc(C(F)(F)F)cc3)n2)cc1 |
| 691 | CN(CC1CCOCC1)C(=O)Cc1ccsc1 |
| 1060 | O=C(Cn1cccc(-c2nc(-c3ccc(Br)cc3)no2)c1=O)NCCc1ccccc1 |
| 836 | CC1=C(c2ccccc2)S(=O)(=O)N=C1N1CCCN(C(=O)COc2ccccc2)CC1 |

| RP-LC retention time [s] | SMILES |
| --- | --- |
| 730 | COc1ccc2c(c1)c(CN1CCC(C(=O)NCCC3=CCCCC3)CC1)cn2C |
| 944 | Cn1cc(C2=CCN(S(=O)(=O)c3ccccc3F)CC2)c2cccnc21 |
| 763 | CCN1CCCn2cc(S(=O)(=O)Nc3ccc(Cl)cc3F)cc2C1=O |
| 852 | CN1CCc2ccccc2C1Cc1ccccc1NC(=O)c1sc2ccccc2c1Cl (stereo not drawn) |
| 728 | COc1ccccc1NC(=O)NCCc1nc2cccnc2n1C1CCCC1 |
| 581 | Cc1c2cnn(-c3ccccc3)c(=O)c2c(C)n1C(C)C(=O)NCCCN1CCN(C)CC1 (stereo not drawn) |
| 1280 | Cn1nccc1C(=O)Nc1ccsc1-c1nc(-c2ccccc2)no1 |
| 616 | CCc1c(C)nc2nc(-c3ccco3)nn2c1N1CCN(c2ccccn2)CC1 |
| 798 | Cc1c(C(=O)N2CCN(S(C)(=O)=O)CC2)nnn1-c1nc2c(s1)CCCC2 |
| 915 | CCOc1ccc(N2C(=O)N(c3ccc(Cl)c(Cl)c3)C3CS(=O)(=O)CC32)cc1 (stereo not drawn) |
| 755 | O=C(NCC1CCOCC1)Nc1cc(F)c(F)c(F)c1 |
| 964 | COC(=O)c1cc(C)nc2c1c(=O)n(Cc1nc(-c3ccc(OC)c(OC)c3)oc1C)c(=O)n2C |
| 1250 | CCCCN(CC)c1nc2cc(C(=O)OC)ccc2c(=O)n1-c1ccccc1 |
| 783 | COc1cccc(NC(=O)C2CCN(S(=O)(=O)c3ccc4[nH]c(=O)sc4c3)CC2)c1 |
| 892 | COc1ccc(Br)cc1CNC(=O)CN1C(=O)CCCc2ccccc21 |
| 623 | CCN(CCCNC(=O)C1CCN(S(=O)(=O)N2CCOCC2)CC1)c1cccc(C)c1 |
| 544 | Cc1csc2nc(CNS(=O)(=O)c3cccnc3)cn12 |
| 1090 | CC(C)c1ccc(NC(=O)Cn2nc(N3CCCC3)c3ccccc3c2=O)cc1 |
| 872 | CN1CCN(C2Cc3ccccc3Sc3ccc(Cl)cc32)CC1 (stereo not drawn) |
| 1110 | CC1=NS(=O)(=O)N(Cc2ccccc2)C=C1C(=O)OCc1noc(C2CCCCC2)n1 |
| 645 | CCOc1ccc(S(=O)(=O)N2CC=C(c3cn(C(C)C)c4ncccc34)CC2)cc1 |
| 1180 | COc1cccc(-c2nc(C3CCN(S(=O)(=O)c4ccc(C)c(C)c4)CC3)no2)c1 |

| RP-LC retention time [s] | SMILES |
| --- | --- |
| 982 | Cc1ccc(Nc2c(-c3ccccc3)nc3cnccn23)c(C)c1 |
| 932 | CCCCC(=O)Nc1nc(-c2ccc3c(c2)N(CC)C(=O)CO3)cs1 |
| 786 | O=C(Cn1cc(C(=O)C(=O)N2CCCC2)c2ccccc21)NCc1ccc2c(c1)OCCCO2 |
| 658 | CCc1nnc(NC(=O)CSc2nnc(Cn3c(=O)sc4ccccc43)n2C)s1 |
| 1050 | Cc1ccc(CNC(=O)Cn2cccc2-c2nc(-c3ccccc3)cs2)o1 |
| 627 | Cc1nc(NCCNC(=O)c2snnc2C)cc(-n2cccn2)n1 |
| 629 | O=C(NCCc1ccccc1)N1CCN(C(=O)N2C[C@H]3C[C@H](C2)[C@H]2CCCC(=O)N2C3)CC1 |
| 773 | O=S(=O)(c1cccnc1)N1CCC(c2ccccc2)C1 (stereo not drawn) |
| 1270 | CCOc1cccc(CNS(=O)(=O)c2cc(-c3nc(C(C)(C)C)cs3)cs2)c1 |
| 844 | Cc1ccc(-n2c(=O)c3c(cc(C)n3C)n(CC(=O)Nc3cc(C)cc(C)c3)c2=O)cc1 |
| 1160 | Cc1ccc(-c2csc(-n3nc(C)c(CC(=O)NCc4ccccc4)c3C)n2)cc1 |
| 963 | COC(=O)C1=CN(c2ccc(F)cc2)c2cc(Br)ccc2S1(=O)=O |
| 632 | COc1ccc(-c2noc(N3CCC(C(=O)N4CCN(C5CCCCC5)CC4)CC3)n2)cc1OC |
| 733 | CCc1nc2ccccc2n1CC(O)COc1cc(C)cc(C)c1 (stereo not drawn) |
| 698 | O=C(Cc1nnc2cc(-c3nc(C4CC4)no3)ccn12)N1CCSCC1 |
| 595 | CCOC(=O)c1noc2nc(C)nc(NCC3CCN(Cc4ccccc4F)CC3)c12 |
| 944 | Cn1c(=O)c(N2CCC(NC(=O)Nc3cccc(Cl)c3)CC2)nc2ccccc21 |
| 658 | CCN(CC)CCNC(=O)C1CCN(C2=NS(=O)(=O)C(c3ccc(Cl)cc3)=C2C)CC1 |
| 958 | O=C(Nc1ccc(F)cc1F)C1CCCN(C(=O)Cc2cccc3ccccc23)C1 (stereo not drawn) |
| 579 | Cc1cc2n(n1)CCCN2C(=O)CCC(=O)NC1CCN(Cc2ccccc2)CC1 |
| 608 | CN1c2cc(C(=O)N3CCN(C4CCCCC4)CC3)ccc2C(=O)N2CCCCC21 (stereo not drawn) |

| SMILES | RP-LC retention time [s] |
| --- | --- |
| c1ccc2sc(C3(NCC4CC4)CCCCC3)cc2c1 | 799 |
